pIC50: −log10 of the molar value.

The target in one assay is T1, USP28 (His-tagged USP28-FL-mammalian) (Homo sapiens, UniProt Q96RU2).
T1 construct: Expression of USP28 (1-1077)-TEV-6*His (pTT5 vector); made in house; host or cells: Expi293f cells (pTT5 vector)
T1 sequence (Q96RU2 1-1077): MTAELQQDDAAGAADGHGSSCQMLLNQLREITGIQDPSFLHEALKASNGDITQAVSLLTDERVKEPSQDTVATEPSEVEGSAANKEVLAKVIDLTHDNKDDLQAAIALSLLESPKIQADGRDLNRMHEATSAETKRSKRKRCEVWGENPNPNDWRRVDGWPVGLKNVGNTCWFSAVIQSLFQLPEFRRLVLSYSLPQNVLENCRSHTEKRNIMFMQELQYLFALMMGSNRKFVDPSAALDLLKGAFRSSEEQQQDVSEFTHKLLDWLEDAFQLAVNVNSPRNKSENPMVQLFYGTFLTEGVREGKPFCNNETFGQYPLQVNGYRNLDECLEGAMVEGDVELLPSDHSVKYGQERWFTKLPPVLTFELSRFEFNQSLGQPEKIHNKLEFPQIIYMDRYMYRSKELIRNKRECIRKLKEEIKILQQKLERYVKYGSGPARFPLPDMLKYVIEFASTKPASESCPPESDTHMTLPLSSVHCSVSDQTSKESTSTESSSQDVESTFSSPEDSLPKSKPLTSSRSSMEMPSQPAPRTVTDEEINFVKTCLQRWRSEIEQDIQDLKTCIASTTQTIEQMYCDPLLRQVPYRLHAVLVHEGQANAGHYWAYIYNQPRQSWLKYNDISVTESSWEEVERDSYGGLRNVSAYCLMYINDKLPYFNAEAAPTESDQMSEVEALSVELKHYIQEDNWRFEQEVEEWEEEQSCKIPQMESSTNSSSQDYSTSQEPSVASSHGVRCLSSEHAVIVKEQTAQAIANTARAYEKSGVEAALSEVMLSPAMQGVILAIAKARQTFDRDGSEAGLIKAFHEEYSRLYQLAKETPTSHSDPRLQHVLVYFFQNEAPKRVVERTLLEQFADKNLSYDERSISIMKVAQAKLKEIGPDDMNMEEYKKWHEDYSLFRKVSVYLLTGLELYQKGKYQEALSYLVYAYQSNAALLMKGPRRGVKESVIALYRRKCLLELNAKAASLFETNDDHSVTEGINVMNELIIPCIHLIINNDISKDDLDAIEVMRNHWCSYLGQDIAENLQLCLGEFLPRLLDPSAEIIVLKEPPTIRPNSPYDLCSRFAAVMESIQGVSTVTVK
Briefly: Ubiquitin-Rhodamine 110 Assay for USP28 Activity, Example A-1(a). In kind it is biochemical. To be noted: Ubiquitin-Rhodamine 110 assay, Example A-1(a); read-out: USP28 A-1(a) IC50 range. The method, boiled down:
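IC50 from 4-parameter logistic fit of percent inhibition versus no-enzyme and DMSO controls; compounds 25 μM to 1.3 nM, 3-fold. Ub-Rh110 cleavage (25 nM, below Km) by […] mammalian-expressed USP28-FL-His ran 45 min at room temperature, stopped with 10 mM citric acid, read ex 485/em 535.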
By pIC50 is commonly meant −log10 of the IC50, conventionally taken in molar units. Turning to `Cc1ccc2c(N)c(C(=O)N[C@H]3COc4cc(N5CCNCC5)cc(F)c4C3)sc2n1` [Example 10-1, (R)-3-amino-N-(5-fluoro-7-(piperazin-1-yl)chroman-3-yl)-6-methylthieno[2,3-b]pyridine-2-carboxamide], the pIC50 is 7.30 to 9.00. With `CO[C@H]1CN(c2cc(F)c3c(c2)OC[C@H](NC(=O)c2sc4nc(C)ccc4c2N)C3)C[C@@H]1N` (single isomer, unassigned) [Example 10-3], the pIC50 is 7.30 to 9.00. `Cc1cc(C)c2c(N)c(C(=O)N[C@H]3COc4cc(N5CC6CNCC(C5)O6)cc(F)c4C3)sc2n1` [Example 10-13, N-((3R)-7-(9-oxa-3,7-diazabicyclo[3.3.1]nonan-3-yl)-5-fluorochroman-3-yl)-3-amino-4,6-dimethylthieno[2,3-b]pyridine-2-carboxamide]: the pIC50 was 7.30 to 9.00.

For the compound `Cc1cnc2c(N)c(C(=O)N[C@H]3CCc4cc(N5CCNC[C@@H](O)C5)ccc4C3)sc2n1` (single isomer, unassigned) [Example 7-4], the pIC50 was 6.70 to 7.30. As for `Cc1ccc2c(N)c(C(=O)N[C@@H]3CCc4cc(N5CCNCC5)cc(F)c4C3)sc2n1` (single isomer, unassigned) [Example 11-12], the pIC50 was 7.30 to 9.00.

`COc1ccc2c(N)c(C(=O)N[C@H]3CCc4cc(N5CC6CCC(C5)N6)ccc4C3)sc2n1` (single isomer, unassigned) [Example 11-5]: the pIC50 is 7.30 to 9.00. Same read-out and setting: for `Cc1cnc2c(N)c(C(=O)N[C@H]3COc4cc(N5CC6CC(C5)N6)cc(F)c4C3)sc2n1` [Example 10-8, N-((3R)-7-(3,6-diazabicyclo[3.1.1]heptan-3-yl)-5-fluorochroman-3-yl)-7-amino-3-methylthieno[2,3-b]pyrazine-6-carboxamide] the value was 7.30 to 9.00. Regarding `CCn1ccc2cc(C(=O)N[C@H]3CCc4cc(N5CC6CCC(C5)N6)ccc4C3)cnc21` (single isomer, unassigned) [Example 11-9], the pIC50 is 5.70 to 6.70. In the case of `Cc1cc(C(F)(F)F)c2c(N)c(C(=O)N[C@H]3COc4cc(N5CCNCC5)cc(F)c4C3)sc2n1` [Example 10-14, (R)-3-amino-N-(5-fluoro-7-(piperazin-1-yl)chroman-3-yl)-6-methyl-4-(trifluoromethyl)thieno[2,3-b]pyridine-2-carboxamide], the pIC50 is 7.30 to 9.00. Take `Cc1ccc2c(N)c(C(=O)N[C@H]3COc4cc(O[C@@H]5COC6(CNC6)C5)ccc4C3)sc2n1` (single isomer, unassigned) [Example 9-1]: the pIC50 was 7.30 to 9.00.

As to `Cc1ccc2c(N)c(C(=O)N[C@@H]3CCc4cc(N5CCN[C@@H](CO)C5)ccc4C3)sc2n1` (single isomer, unassigned) [Example 7-11], the pIC50 is 6.70 to 7.30. With `CCn1ccc2cc(C(=O)N[C@H]3CCc4cc(N5CC6CCC(C5)N6)ccc4C3)nnc21` (single isomer, unassigned) [Example 11-24], the pIC50 is 5.70 to 6.70. On to `Cc1cnc2c(N)c(C(=O)N[C@H]3COc4cc(N5CC6CNCC(C5)O6)cc(F)c4C3)sc2n1` [Example 10-12, N-((3R)-7-(9-oxa-3,7-diazabicyclo[3.3.1]nonan-3-yl)-5-fluorochroman-3-yl)-7-amino-3-methylthieno[2,3-b]pyrazine-6-carboxamide], for which the pIC50 was 7.30 to 9.00. Same read-out and setting: the result for `Cc1cc(C)c2c(N)c(C(=O)N[C@H]3COc4cc(N5CCNCC5)cc(F)c4C3)sc2n1` [Example 10-9, (R)-3-amino-N-(5-fluoro-7-(piperazin-1-yl)chroman-3-yl)-4,6-dimethylthieno[2,3-b]pyridine-2-carboxamide] reads 7.30 to 9.00; that for `Cc1ccc2c(N)c(C(=O)N[C@@H]3CCc4cc(N5CC6CCC(C5)N6)ccc4C3)sc2n1` [Example 11-2, N-((2R)-6-(3,8-diazabicyclo[3.2.1]octan-3-yl)-1,2,3,4-tetrahydronaphthalen-2-yl)-3-amino-6-methylthieno[2,3-b]pyridine-2-carboxamide], 6.70 to 7.30; that for `Cc1ccc2c(N)c(C(=O)N(C)[C@H]3COc4cc(N5CCNCC5)cc(F)c4C3)sc2n1` [Example 10-15, 3-amino-N-[(3R)-5-fluoro-7-(piperazin-1-yl)-3,4-dihydro-2H-1-benzopyran-3-yl)-N,6-dimethylthieno[2,3-b]pyridine-2-carboxamide], below 5.70.

Still in this assay, the particulars now being: Ubiquitin-Rhodamine 110 assay, format Example A-1(a); read-out: USP28 A-1(a) IC50 range.
Turning to `Cc1ccc2c(N)c(C(=O)N[C@@H]3CCc4c(F)c(N5CC6CNCC(C5)O6)cc(F)c4C3)sc2n1` (single isomer, unassigned) [Example 22-4], the pIC50 was 7.30 to 9.00.

In the case of `Cc1ccc2c(N)c(C(=O)N[C@H]3COc4c(F)c(N5CC6CCC(C5)N6)cc(F)c4C3)sc2n1` (single isomer, unassigned) [Example 13-1], the pIC50 is 7.30 to 9.00. `Cc1ccc2c(N)c(C(=O)N[C@@H]3CCc4cc(N5CC6CCC(C5)N6)c(F)cc4C3)sc2n1` (single isomer, unassigned) [Example 21-3]: the pIC50 is 7.30 to 9.00. On the same count and under the same terms, for `Cc1ccc2c(N)c(C(=O)N[C@H]3CCc4cc(N5C6CNCC5C6)ccc4C3)sc2n1` (single isomer, unassigned) [Example 11-35] the value was 7.30 to 9.00; for `Cc1ccc2c(N)c(C(=O)N[C@H]3COc4c(cnc(N5CC6CCC(C5)N6)c4F)C3)sc2n1` [Example 18, N-((3R)-7-(3,8-Diazabicyclo[3.2.1]octan-3-yl)-8-fluoro-3,4-dihydro-2H-pyrano[3,2-c]pyridin-3-yl)-3-amino-6-methylthieno[2,3-b]pyridine-2-carboxamide], 7.30 to 9.00; for `Cc1ccc2c(N)c(C(=O)N[C@H]3CCc4cc(N5CCNCC5)cnc4C3)sc2n1` (single isomer, unassigned) [Example 15-2], 5.70 to 6.70. Regarding `Cc1ccc2c(N)c(C(=O)N[C@@H]3CCc4cc(N5CCNCC5)c(F)cc4C3)sc2n1` (single isomer, unassigned) [Example 21-7], the pIC50 was 6.70 to 7.30. `Cc1ccc2c(N)c(C(=O)N[C@@H]3COc4c(F)c(N5CC6CCC(C5)N6)cc(F)c4C3)sc2n1` (single isomer, unassigned) [Example 13-2]: the pIC50 was 5.70 to 6.70. On the same count and under the same terms, for `Cc1ccc2c(N)c(C(=O)N[C@@H]3CCc4c(ccc(N5CCNCC5)c4F)C3)sc2n1` (single isomer, unassigned) [Example 21-5] the value was 7.30 to 9.00.

`Cc1nc2sc(C(=O)N[C@@H]3CCc4c(C#N)c(N5CC6CCC(C5)N6)cc(F)c4C3)c(N)c2s1` (single isomer, unassigned) [Example 14-22]: the pIC50 is 5.70 to 6.70.

As for `Cc1ccc2c(N)c(C(=O)N[C@H]3CCc4cc(N5CC6CCC(C5)N6)c(F)cc4C3)sc2n1` (single isomer, unassigned) [Example 21-4], the pIC50 is 5.70 to 6.70.

Take `Cc1ccc2c(N)c(C(=O)N[C@H]3COc4cc(N5CCNCC5)ncc4C3)sc2n1` [Example 16, (R)-3-Amino-6-methyl-N-(7-(piperazin-1-yl)-3,4-dihydro-2H-pyrano[3,2-c]pyridin-3-yl)thieno[2,3-b]pyridine-2-carboxamide]: the pIC50 was 7.30 to 9.00. On the same count and under the same terms, the result for `Cc1ccc2c(N)c(C(=O)N[C@H]3COc4cc(N5CCNCC5)c(Cl)cc4C3)sc2n1` [Example 13-5, (R)-3-amino-N-(6-chloro-7-(piperazin-1-yl)chroman-3-yl)-6-methylthieno[2,3-b]pyridine-2-carboxamide] reads below 5.70; that for `Cc1ccc2c(N)c(C(=O)N[C@H]3CCc4c(ccc(N5CCNCC5)c4F)C3)sc2n1` (single isomer, unassigned) [Example 21-6], 5.70 to 6.70; that for `CO[C@H]1CN(c2ccc3c(n2)CC[C@H](NC(=O)c2sc4nc(C)cnc4c2N)C3)C[C@@H]1N` (single isomer, unassigned) [Example 23-1], 5.70 to 6.70. `CO[C@H]1CN(c2ccc3c(n2)CC[C@@H](NC(=O)c2sc4nc(C)ccc4c2N)C3)C[C@@H]1N` [Example 23-5, 3-amino-N-[(6R)-2-[(3S,4S)-3-amino-4-methoxypyrrolidin-1-yl]-5,6,7,8-tetrahydroquinolin-6-yl]-6-methylthieno[2,3-b]pyridine-2-carboxamide]: the pIC50 is 5.70 to 6.70. Consider `Cc1ccc2c(N)c(C(=O)N[C@H]3CCc4c(ccc(N5CC6CCC(C5)N6)c4F)C3)sc2n1` (single isomer, unassigned) [Example 21-2], for which the pIC50 is 7.30 to 9.00.

Values taken from patent publication US11524966B1 (Valo Early Discovery, Inc., priority 2017, dated 2022).
